Test results as given in patent US20100099730A1, “ANNELLATED PYRROLE COMPOUNDS FOR CANCER MANAGEMENT” (MERCKLE GMBH, priority 2006, published 2010).

Tests used:
[1] = test system: LTB4 production by HCA-7 cells; test: LTB4 level in HCA-7 culture medium, enzyme immunoassay; assay type: cell-based, human; details: 150 μM, 24 hours, serum-free medium
Protocol: (§1) For treatment with licofelone ([…] GmbH, Ulm, Germany), exponentially growing cells were trypsinized, seeded in regular medium (2×10^4 cells/well in 96-well plates; 1.2×10^5 cells/well in 24-well plates; 6×10^5 cells/well in 6-well plates; 1.5×10^6 cells in 25 cm^2 flasks) and incubated for 24 h. The medium was then replaced either with control medium or with medium containing 100, 125 or 150 μM licofelone. This drug was dissolved in dimethyl sulfoxide (DMSO) and diluted into the medium to obtain the required final concentration before each experiment. Fresh medium, alone or supplemented with licofelone, was completely replaced every 48 hours. To control for an effect of DMSO, control samples were treated in parallel with an equivalent concentration of this solvent. For determination of PGE2 and LTB4 production, HCA-7 were seeded in a 24-well plates at the density of 1.2×10^5 cells/well and grown in complete medium for 24 hours. Cells were then serum-starved overnight before being exposed to increasing doses of licofelone (100-150 μM) in serum-free medium for additional 24 hours. The harvested medium was centrifuged at 500×g for 5 min (4° C.) to remove floating cells and the supernatant was collected and assayed following customer instructions. The levels of PGE2 and LTB4 were measured by enzyme immunoassay. Results are expressed as picograms/ml of medium. […]

HCA-7 cells [2] = test: MTT reduction assay, HCA-7 survival/proliferation; assay type: cell-based, human
Protocol: LS174T and CACO-2 were a generous gift of Prof. F. Dall'Olio (Dept. of Experimental Pathology, University of Bologna, Italy); HCA-7 cells were purchased from European Collection of Cell Cultures. These lines were cultured in Dulbecco's modified Eagle's Medium with 4.5 g/L glucose (DMEM), supplemented with 10% (v/v) heat-inactivated FBS, 2 mM L-glutamine, 100 U/ml penicillin and 100 μg/ml streptomycin. Cells were grown in monolayers, incubated at 37° C. in a humidified atmosphere of 95% air and 5% CO2 and routinely passaged using trypsin-EDTA 0.025%. For treatment with licofelone ([…] GmbH, Ulm, Germany), exponentially growing cells were trypsinized, seeded in regular medium (2×10^4 cells/well in 96-well plates; 1.2×10^5 cells/well in 24-well plates; 6×10^5 cells/well in 6-well plates; 1.5×10^6 cells in 25 cm^2 flasks) and incubated for 24 h. The medium was then replaced either with control medium or with medium containing 100, 125 or 150 μM licofelone. This drug was dissolved in dimethyl sulfoxide (DMSO) and diluted into the medium to obtain the required final concentration before each experiment. Fresh medium, alone or supplemented with licofelone, was completely replaced every 48 hours. To control for an effect of DMSO, control samples were treated in parallel with an equivalent concentration of this solvent. The effect of licofelone on HCA-7 survival/proliferation was determined colourimetrically using the MTT assay. MTT is a yellow-coloured tetrazolium salt that is taken up and cleaved only by metabolically active cells, which reduce it to a coloured, water-insoluble formazan salt. The solubilized formazan product can be quantified via absorbance at 570 nm measured using a 96-well-format spectrophotometer and the absorbance correlates directly with cell number. 2×10^4 cells/well were plated in a 100 μl volume in 96-well plates and grown for 24 h in DMEM supplemented with 10% FBS. Complete medium containing the indicated amount of licofelone, alone or in association with exogenous PGE2 and/or LTB4), was then replaced to each well. At the indicated times, 10 μl of MTT (5 mg/ml) was added and cells were incubated at 37° C. for 4 hours. The tetrazolium crystals were solubilized by the addition of 10% SDS in 0.01 N HCl. After overnight incubation at 37° C., the absorbance was measured at 570 nm using a 96-well spectrophotometric microplate reader. Survival/proliferation rate was calculated as follows (A570 treatment/A570 control×100). All determinations were carried out in triplicate.

[3] = test system: PGE2 production by HCA-7 cells; test: PGE2 level in HCA-7 culture medium, enzyme immunoassay; assay type: cell-based, human; details: all doses tested (100-150 μM), 24 hours
Protocol: as §1

caspase-3 = test: Western blot of caspase-3 cleavage in HCA-7 cells; assay type: cell-based, human; details: licofelone 150 μM, 0-24 hours, maximum after 24 hours
Protocol: (§2) For Western blot analysis, cells were seeded in a 25 cm^2 flask at the density of 1.5×10^6 and grown in complete medium for 24 hours. At the end of incubation cells were scraped from flasks and lysed in a buffer containing 10 mM Tris, 1% SDS, 1 mM Na orthovanadate and a protease inhibitors cocktail. Samples containing 50 μg of protein were subjected to gel electrophoresis in 10% polyacrylamide gels in the presence of SDS. The proteins were then transferred electrophoretically to a Hybond-C nitrocellulose membrane at 300 V for 1 h at 4° C. The membrane was subsequently immersed in 0.5% Ponceau S in 1% acetic acid to stain the proteins and to confirm that equal amounts of protein were loaded in each lane and transferred efficiently. After incubation overnight in a blocking solution containing 5% bovine skim milk powder in 10 mM phosphate buffered saline (PBS, pH 7.4), the nitrocellulose membrane was incubated for 1 h with primary antibodies: anti COX-1, anti COX-2 and anti 5-LOX were used in HCA-7, Caco-2 and LS174T at a dilution of 1:500; anti Caspase-3 and anti PARP-1 were used in HCA-7 at the dilution of 1:250. The membrane was then washed with PBS buffer to remove the excess unbound antibodies and incubated for 1 h with HRP-conjugated secondary antibody, at a dilution of 1:1000. Detection was performed by using the ECL procedure developed by Amersham. […]

HCA-7 cells [4] = test: Cell morphology: phase-contrast and Hoechst 33342 fluorescence microscopy; assay type: cell-based, human; details: licofelone 150 μM
Protocol: Morphological changes in the nuclear chromatin of cells undergoing apoptosis were detected by staining with the DNA-binding fluorochrome bis-benzimide stain. Briefly, HCA-7 were seeded in a flat-bottomed 96-well plate at the density of 2×10^4 cells/well and grown for 24 hours in complete medium. Cells where then cultured in the presence or absence of licofelone 150 μM at the indicated times; at the end of incubation, Hoechst 33342 (1 μg/ml) was added to each well for at least 20 min. at 37° C. HCA-7 cells were then washed with phosphate-buffered saline (PBS), fixed in 4% formaldehyde and observed under a fluorescence microscope.

PARP = test: Western blot of PARP cleavage in HCA-7 cells; assay type: cell-based, human; details: licofelone 150 μM, almost complete at 24 hours
Protocol: as §2

[5] = Plasma ML3000 level after immediate release dosage form; assay type: in vivo; details: for 8 hours
HCA-7 cells [6] = test: Cell-cycle distribution by flow cytometry (propidium iodide), sub-G1 cells; assay type: cell-based, human; details: 0-150 μM, after 48 hours of treatment
Protocol: For treatment with licofelone ([…] GmbH, Ulm, Germany), exponentially growing cells were trypsinized, seeded in regular medium (2×10^4 cells/well in 96-well plates; 1.2×10^5 cells/well in 24-well plates; 6×10^5 cells/well in 6-well plates; 1.5×10^6 cells in 25 cm^2 flasks) and incubated for 24 h. The medium was then replaced either with control medium or with medium containing 100, 125 or 150 μM licofelone. This drug was dissolved in dimethyl sulfoxide (DMSO) and diluted into the medium to obtain the required final concentration before each experiment. Fresh medium, alone or supplemented with licofelone, was completely replaced every 48 hours. To control for an effect of DMSO, control samples were treated in parallel with an equivalent concentration of this solvent. The cell-cycle distribution for control and drug-treated cells was determined after 24 and 48 hours of treatment. Cells were seeded at the density of 6×10^5 cells/well onto 6-well plates and allowed to adhere for 24 h. Cells were then incubated with licofelone for 24 and 48 hours and then harvested by trypsinization. […] Subsequently, DNA content was measured using a flow cytometer and the cell-cycle distribution was calculated using the Phoenix Multicycle for Windows cell-cycle analysis software. A minimum of 10'000 events were measured for each sample.

## CC1(C)Cc2c(-c3ccccc3)c(-c3ccc(Cl)cc3)c(CC(=O)O)n2C1 [licofelone, [2,2-dimethyl-6-(4-chlorophenyl)-7-phenyl-2,3-dihydro-1H-pyrrolizine-5 yl]-acetic acid]
[1]
  reduction of LTB4 levels with respect to untreated cells: 85%
HCA-7 cells [2]; 150 μM licofelone, 48 hours, exogenous PGE2 and LTB4 added
  reversal of antiproliferative effect by exogenous PGE2 or LTB4: neither PGE2 or LTB4 administration was able to reverse the antiproliferative effect
HCA-7 cells [2]; Homo sapiens, HCA-7, after 24 hours of treatment
  IC50: 125 ± 6.25 µM
HCA-7 cells [2]; Homo sapiens, HCA-7, after 48 hours of treatment
  IC50: 72 ± 3.6 µM
HCA-7 cells [2]; Homo sapiens, HCA-7, licofelone 150 μM, read-out: inhibition of HCA-7 growth
  inhibition at 150 µM: ~90%
[3]
  inhibition of PGE2 production: strongly inhibited PGE2 production
caspase-3
  cleavage of 34-kDa pro-enzyme caspase-3 to active 17-kDa form: strong and time-dependent cleavage
HCA-7 cells [4]
  appearance of membrane blebbing after administration of the drug: 10 to 12 h
HCA-7 cells [4]; Hoechst staining
  morphological changes of nuclei after drug addition: 16-18 hours
PARP
  degradation of PARP (85-kDa band): marked degradation of PARP
[5]; dose 2.5 mg/kg
  plasma ML3000 concentration maintained: above 100 ng/mL
[5]; dose 5 mg/kg
  plasma ML3000 concentration maintained: > 200 ng/mL
HCA-7 cells [6]
  accumulation of sub-G1 phase cells, maximum: 85%
